The supplement of paper PMC13380429

Tests used:
A549-ACE2 = assay: drug-induced phospholipidosis relative to tamoxifen; higher = more phospholipidosis
[1] = tested on: A549-ACE2 infected with SARS-CoV-2; assay: cell count relative to DMSO; higher = less toxic; conditions: 24 h
Vero E6 [2] = assay: drug sensitivity score (DSS) for viability; higher = more toxic; extreme values may be limits of the assay; conditions: 72 h
U2OS [3] = assay: as above; conditions: 72 h
Calu-3 [4] = assay: as above; conditions: 72 h
HepG2 [5] = assay: as above; conditions: 72 h
Caco-2 [6] = assay: as above; conditions: 72 h
Vero E6 [7] = assay: relative viability EC50 (midpoint between 100% and the lowest measured viability); higher = less toxic; conditions: 72 h
U2OS [8] = assay: as above; conditions: 72 h
Calu-3 [9] = assay: as above; conditions: 72 h
Caco-2 [10] = assay: as above; conditions: 72 h
Vero E6 [11] = assay: cell viability relative to DMSO; higher = less toxic; conditions: 72 h
U2OS [12] = assay: as above; conditions: 72 h
Calu-3 [13] = assay: as above; conditions: 72 h
HepG2 [14] = assay: as above; conditions: 72 h
Caco-2 [15] = assay: as above; conditions: 72 h
[16] = tested on: A549-ACE2 infected with SARS-CoV-2; assay: morphology score (similarity to uninfected cells); higher = more like uninfected cells; conditions: 24 h
[17] = tested on: A549-ACE2 infected with SARS-CoV-2; assay: SARS-CoV-2 infection rate relative to DMSO; higher = more infection; conditions: 24 h

What does the source list for Cc1ccc(CNc2ncnc3ccc(-c4ccc(CO)o4)cc23)o1 [ML167]?
drug-induced phospholipidosis (A549-ACE2; 0.3 µM, 24 h): 2.53%; drug-induced phospholipidosis (A549-ACE2; 0.3 µM, 48 h): 1.66%; drug-induced phospholipidosis (A549-ACE2; 0.3 µM, 72 h): 1.51%; drug-induced phospholipidosis (A549-ACE2; 0.833333 µM, 24 h): 0.81%; drug-induced phospholipidosis (A549-ACE2; 0.833333 µM, 48 h): -0.31%; drug-induced phospholipidosis (A549-ACE2; 0.833333 µM, 72 h): -4.06%; drug-induced phospholipidosis (A549-ACE2; 3.33333 µM, 24 h): -3.37%; drug-induced phospholipidosis (A549-ACE2; 3.33333 µM, 48 h): -4.24%; drug-induced phospholipidosis (A549-ACE2; 3.33333 µM, 72 h): -1.11%; drug-induced phospholipidosis (A549-ACE2; 6.66667 µM, 24 h): 5.92%; drug-induced phospholipidosis (A549-ACE2; 6.66667 µM, 48 h): 1.31%; drug-induced phospholipidosis (A549-ACE2; 6.66667 µM, 72 h): -0.124%; drug-induced phospholipidosis (A549-ACE2; 10 µM, 24 h): 6.99%; drug-induced phospholipidosis (A549-ACE2; 10 µM, 48 h): 3.46%; drug-induced phospholipidosis (A549-ACE2; 10 µM, 72 h): 2.4%; drug-induced phospholipidosis (A549-ACE2; 30 µM, 24 h): 19.4%; drug-induced phospholipidosis (A549-ACE2; 30 µM, 48 h): 12.6%; drug-induced phospholipidosis (A549-ACE2; 30 µM, 72 h): 14.2%; cell count ([1]; 0.3 µM): 99%; cell count ([1]; 3 µM): 111%; cell count ([1]; 10 µM): 103%; cell count ([1]; 30 µM): 99%; drug sensitivity score (Vero E6 [2]): 0; drug sensitivity score (U2OS [3]): 0; drug sensitivity score (Calu-3 [4]): 1.2; drug sensitivity score (HepG2 [5]): 2.3; drug sensitivity score (Caco-2 [6]): 1.2; relative viability EC50 (Vero E6 [7]): > 10 µM; relative viability EC50 (U2OS [8]): > 10 µM; relative viability EC50 (Calu-3 [9]): > 10 µM; relative viability EC50 (Caco-2 [10]): > 10 µM; cell viability (Vero E6 [11]; 1 nM): 104%; cell viability (Vero E6 [11]; 10 nM): 105%; cell viability (Vero E6 [11]; 100 nM): 95%; cell viability (Vero E6 [11]; 1000 nM): 96.5%; cell viability (Vero E6 [11]; 10000 nM): 89.1%; cell viability (U2OS [12]; 1 nM): 102%; cell viability (U2OS [12]; 10 nM): 99.7%; cell viability (U2OS [12]; 100 nM): 106%; cell viability (U2OS [12]; 1000 nM): 97.7%; cell viability (U2OS [12]; 10000 nM): 99.9%; cell viability (Calu-3 [13]; 1 nM): 102%; cell viability (Calu-3 [13]; 10 nM): 91.5%; cell viability (Calu-3 [13]; 100 nM): 98.1%; cell viability (Calu-3 [13]; 1000 nM): 85%; cell viability (Calu-3 [13]; 10000 nM): 83%; cell viability (HepG2 [14]; 1 nM): 94.8%; cell viability (HepG2 [14]; 10 nM): 102%; cell viability (HepG2 [14]; 100 nM): 99.2%; cell viability (HepG2 [14]; 1000 nM): 93.5%; cell viability (HepG2 [14]; 10000 nM): 70.5%; cell viability (Caco-2 [15]; 1 nM): 106%; cell viability (Caco-2 [15]; 10 nM): 97.3%; cell viability (Caco-2 [15]; 100 nM): 110%; cell viability (Caco-2 [15]; 1000 nM): 84.8%; cell viability (Caco-2 [15]; 10000 nM): 93.6%; morphology score ([16]; 0.3 µM): 0.14; morphology score ([16]; 3 µM): 0.35; morphology score ([16]; 10 µM): 0.47; morphology score ([16]; 30 µM): 0.52; SARS-CoV-2 infection rate ([17]; 0.3 µM): 98%; SARS-CoV-2 infection rate ([17]; 3 µM): 92%; SARS-CoV-2 infection rate ([17]; 10 µM): 89%; SARS-CoV-2 infection rate ([17]; 30 µM): 72%
